The source of these data is US10889607B2, “Sialic acid analogs” (Ultragenyx Pharmaceutical Inc., priority 2011, dated 2021).

The nature of series [1]: Sialic acid/prodrug single dose PO crossover pharmacokinetics study. Type of series: in vivo, cynomolgus monkeys. As to conditions: for peak serum concentration (Cmax): serum sialic acid, mean n=3, single 100 mg/kg PO, fasted cynomolgus monkeys; for extent of the absorption: sialic acid API vs prodrug, single 100 mg/kg PO, cynomolgus monkeys. The source says: Example 4. Sialic Acid/Prodrug Single Dose PO Crossover Pharmacokinetics Study in Cynomolgus Monkeys
A single oral dose crossover pharmacokinetic study of sialic acid (API) and prodrug (Compound 1—a valine ester of sialic acid as described above) was run in fasted cynomolgus monkeys (n=3). For this study, it was essential that the GI tract of the in vivo model have some similarities to human metabolism in order for the Pep Ti transporter system to be present, thus monkeys were chosen since they carry the same transporter in the gut as humans.
The 100 mg/kg dose level chosen was based on what is known for dosing of sialic acid which has passed complete toxicological evaluation and is safe up to 2,000 mg/kg NOAEL in dogs and rats. On Day 1, three female cynomolgus monkeys were dosed with 100 mg/kg sialic acid (API) and on Day 8 the same three cynomolgus monkeys were dosed with 100 mg/kg of the prodrug. Serum was collected at the following timepoints: predose, then 5 min, 15 min, 30 min, 1 hr, 2 hrs, 4 hrs, 8 hrs, 12 hrs and 24 hrs postdose. Urine samples were collected predose overnight, then at intervals 0-4 hrs, 4-8 hrs, 8-12 hrs and 12-24 hrs post dose. The data in FIG. 2A show the mean absorption values (n=3) of serum sialic acid on Days 1 and 8. The prodrug peak serum concentration is earlier (1 hr) than sialic acid API (2 hrs). […] The pharmacokinetic data in FIGS. 2B and 2C show group averages of sialic acid concentrations on Days 1 and 8.

For series [2] the following is noted: rat, in vivo; cited from earlier work.
For series [3] the following is noted: dog, in vivo; cited from earlier work.

Like-named read-outs stand apart in the source and are kept apart here.

On to `CC(=O)N[C@H]1[C@H]([C@H](O)[C@H](O)CO)OC(O)(C(=O)O)C[C@@H]1O` (stereo partly drawn) [sialic acid, N-acetylneuraminic acid], for which, in series [1], the “peak serum concentration (Cmax)” value came out at 1623 ng/mL and the “extent of the absorption” value is “similar”. In series [2], the NOAEL was 2,000 mg/kg. The NOAEL in series [3] is on record as 2,000 mg/kg.

Turning to `CC(=O)NC1C(O)CC(O)(C(=O)O)OC1C(O)C(O)COC(=O)C(N)C(C)C` (stereo not drawn) [Compound 1, 5-Acetylamino-6-[3-(2-amino-3-methyl-butyryloxy)-1,2-dihydroxy-propyl]-2,4-dihydroxy-tetrahydro-pyran-2-carboxylic acid], in series [1], the “peak serum concentration (Cmax)” value was 857 ng/mL and the “extent of the absorption” value was “similar”.
